Measurements as given in patent US9422297B2, “Tricyclic compounds having cytostatic and/or cytotoxic activity and methods of use thereof” (Duquesne University of the Holy Ghost, priority 2007, dated 2016).
Like-named read-outs stand apart in the source and are kept apart here.

Key:
A431 cytotoxicity assay = assay type: cell-based; settings: human, A431 cells
PDGFR-β kinase = PDGFR-β kinase (Homo sapiens (Human), UniProt P09619); assay: PDGFR-β kinase inhibition; assay type: biochemical
EGFR kinase = EGFR kinase (Homo sapiens (Human), UniProt P00533); assay: EGFR kinase inhibition; assay type: biochemical
Flk-1 kinase = Flk-1 kinase (Homo sapiens (Human), UniProt P35968); assay: Flk-1 kinase inhibition; assay type: biochemical; settings: Table 3
CAM angiogenesis = assay: CAM assay, inhibition of angiogenesis; assay type: in vivo; settings: Table 3
Thymidylate synthase [1] = target: Thymidylate synthase (Escherichia coli (strain K12), UniProt P0A884); assay: Thymidylate synthase inhibition, E. coli; assay type: biochemical
Thymidylate synthase [2] = target: Thymidylate synthase (Homo sapiens (Human), UniProt P04818); assay: Thymidylate synthase inhibition, human; assay type: biochemical; settings: Human TS
[3] = system: COLO-205 metastatic human colon cancer cells; assay: COLO-205 tumors implanted in athymic mice; assay type: in vivo
VEGFR-2 kinase = VEGFR-2 kinase (Homo sapiens (Human), UniProt P35968); assay: VEGFR-2 kinase inhibition; assay type: biochemical; settings: Table 1
Thymidylate synthase [4] = target: Thymidylate synthase (Toxoplasma gondii, UniProt Q07422); assay: Thymidylate synthase inhibition, Toxo; assay type: biochemical
[5] = Table 3, read-out: PDGFR-β kinase
[6] = athymic mice, 25 mg/kg 3× weekly

Chain of Thymidylate synthase (Homo sapiens (Human), UniProt P04818) (P04818 whole entry): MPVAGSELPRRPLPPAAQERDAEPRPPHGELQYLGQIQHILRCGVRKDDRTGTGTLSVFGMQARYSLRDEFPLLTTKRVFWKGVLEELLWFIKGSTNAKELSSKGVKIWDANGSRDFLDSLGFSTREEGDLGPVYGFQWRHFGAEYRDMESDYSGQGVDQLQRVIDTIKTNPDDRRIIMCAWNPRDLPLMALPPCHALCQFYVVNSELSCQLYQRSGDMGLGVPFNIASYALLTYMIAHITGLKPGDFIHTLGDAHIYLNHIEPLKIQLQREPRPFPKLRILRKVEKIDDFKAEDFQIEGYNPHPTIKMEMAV
Chain of Flk-1 kinase (P35968 20-1356): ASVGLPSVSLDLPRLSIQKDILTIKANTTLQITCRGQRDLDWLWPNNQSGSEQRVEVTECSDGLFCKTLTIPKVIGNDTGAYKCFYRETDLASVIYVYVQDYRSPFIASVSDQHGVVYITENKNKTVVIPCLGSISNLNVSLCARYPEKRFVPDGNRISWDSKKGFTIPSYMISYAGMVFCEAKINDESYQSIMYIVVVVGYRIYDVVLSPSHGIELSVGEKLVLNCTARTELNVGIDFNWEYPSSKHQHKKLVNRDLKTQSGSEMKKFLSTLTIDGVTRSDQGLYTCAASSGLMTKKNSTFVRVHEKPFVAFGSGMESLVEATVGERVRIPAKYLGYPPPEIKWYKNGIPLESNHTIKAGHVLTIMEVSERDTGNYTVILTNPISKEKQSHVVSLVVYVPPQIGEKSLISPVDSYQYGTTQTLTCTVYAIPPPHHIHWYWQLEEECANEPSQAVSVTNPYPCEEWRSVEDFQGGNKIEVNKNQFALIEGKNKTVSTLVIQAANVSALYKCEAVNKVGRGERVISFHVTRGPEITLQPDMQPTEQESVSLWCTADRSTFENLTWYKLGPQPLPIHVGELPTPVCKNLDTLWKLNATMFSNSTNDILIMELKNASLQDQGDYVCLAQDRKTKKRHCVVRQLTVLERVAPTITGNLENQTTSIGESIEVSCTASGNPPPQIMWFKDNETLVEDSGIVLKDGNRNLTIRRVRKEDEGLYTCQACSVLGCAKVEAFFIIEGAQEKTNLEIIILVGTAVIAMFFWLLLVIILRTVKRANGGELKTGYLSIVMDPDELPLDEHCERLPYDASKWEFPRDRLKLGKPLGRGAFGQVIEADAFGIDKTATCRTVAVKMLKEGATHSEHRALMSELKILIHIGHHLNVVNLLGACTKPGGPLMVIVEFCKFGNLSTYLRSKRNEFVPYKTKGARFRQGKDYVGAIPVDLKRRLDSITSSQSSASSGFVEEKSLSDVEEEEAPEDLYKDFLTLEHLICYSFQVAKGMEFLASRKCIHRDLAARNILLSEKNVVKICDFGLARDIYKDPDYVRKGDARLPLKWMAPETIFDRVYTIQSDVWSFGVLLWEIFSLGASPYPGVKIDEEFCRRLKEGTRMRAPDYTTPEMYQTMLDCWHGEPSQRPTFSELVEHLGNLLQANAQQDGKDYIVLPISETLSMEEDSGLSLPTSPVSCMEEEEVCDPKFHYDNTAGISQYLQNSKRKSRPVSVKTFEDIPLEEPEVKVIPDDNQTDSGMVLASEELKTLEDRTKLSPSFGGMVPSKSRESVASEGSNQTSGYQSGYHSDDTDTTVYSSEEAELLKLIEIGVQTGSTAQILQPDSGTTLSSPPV
Chain of PDGFR-β kinase (P09619 33-1106): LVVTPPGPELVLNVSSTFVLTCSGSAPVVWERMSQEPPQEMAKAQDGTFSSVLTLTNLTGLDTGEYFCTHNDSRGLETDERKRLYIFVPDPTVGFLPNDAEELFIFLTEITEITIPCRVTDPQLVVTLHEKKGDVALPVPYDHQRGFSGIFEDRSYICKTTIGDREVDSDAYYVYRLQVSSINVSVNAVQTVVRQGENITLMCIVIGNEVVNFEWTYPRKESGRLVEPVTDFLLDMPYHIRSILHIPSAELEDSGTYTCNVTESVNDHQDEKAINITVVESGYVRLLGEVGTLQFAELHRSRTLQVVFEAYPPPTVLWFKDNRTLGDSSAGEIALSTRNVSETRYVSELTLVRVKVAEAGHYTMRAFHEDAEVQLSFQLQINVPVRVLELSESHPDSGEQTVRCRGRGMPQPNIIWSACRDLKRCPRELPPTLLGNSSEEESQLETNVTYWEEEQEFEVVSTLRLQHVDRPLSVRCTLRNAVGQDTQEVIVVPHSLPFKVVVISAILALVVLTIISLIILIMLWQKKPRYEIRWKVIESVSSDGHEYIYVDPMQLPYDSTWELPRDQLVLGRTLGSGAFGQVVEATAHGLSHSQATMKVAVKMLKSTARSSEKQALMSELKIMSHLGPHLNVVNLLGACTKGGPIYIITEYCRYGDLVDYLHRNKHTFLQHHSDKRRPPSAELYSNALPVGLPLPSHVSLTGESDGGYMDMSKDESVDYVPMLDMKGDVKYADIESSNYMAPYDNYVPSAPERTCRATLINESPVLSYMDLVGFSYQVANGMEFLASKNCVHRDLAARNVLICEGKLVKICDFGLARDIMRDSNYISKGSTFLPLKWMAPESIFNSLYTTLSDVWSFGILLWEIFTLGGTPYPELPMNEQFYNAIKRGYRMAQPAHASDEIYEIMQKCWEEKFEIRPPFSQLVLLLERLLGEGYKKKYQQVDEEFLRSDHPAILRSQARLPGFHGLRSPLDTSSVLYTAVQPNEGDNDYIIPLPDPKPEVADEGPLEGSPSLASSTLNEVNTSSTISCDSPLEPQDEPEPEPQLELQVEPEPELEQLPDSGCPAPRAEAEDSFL
Chain of EGFR kinase (P00533 25-1210): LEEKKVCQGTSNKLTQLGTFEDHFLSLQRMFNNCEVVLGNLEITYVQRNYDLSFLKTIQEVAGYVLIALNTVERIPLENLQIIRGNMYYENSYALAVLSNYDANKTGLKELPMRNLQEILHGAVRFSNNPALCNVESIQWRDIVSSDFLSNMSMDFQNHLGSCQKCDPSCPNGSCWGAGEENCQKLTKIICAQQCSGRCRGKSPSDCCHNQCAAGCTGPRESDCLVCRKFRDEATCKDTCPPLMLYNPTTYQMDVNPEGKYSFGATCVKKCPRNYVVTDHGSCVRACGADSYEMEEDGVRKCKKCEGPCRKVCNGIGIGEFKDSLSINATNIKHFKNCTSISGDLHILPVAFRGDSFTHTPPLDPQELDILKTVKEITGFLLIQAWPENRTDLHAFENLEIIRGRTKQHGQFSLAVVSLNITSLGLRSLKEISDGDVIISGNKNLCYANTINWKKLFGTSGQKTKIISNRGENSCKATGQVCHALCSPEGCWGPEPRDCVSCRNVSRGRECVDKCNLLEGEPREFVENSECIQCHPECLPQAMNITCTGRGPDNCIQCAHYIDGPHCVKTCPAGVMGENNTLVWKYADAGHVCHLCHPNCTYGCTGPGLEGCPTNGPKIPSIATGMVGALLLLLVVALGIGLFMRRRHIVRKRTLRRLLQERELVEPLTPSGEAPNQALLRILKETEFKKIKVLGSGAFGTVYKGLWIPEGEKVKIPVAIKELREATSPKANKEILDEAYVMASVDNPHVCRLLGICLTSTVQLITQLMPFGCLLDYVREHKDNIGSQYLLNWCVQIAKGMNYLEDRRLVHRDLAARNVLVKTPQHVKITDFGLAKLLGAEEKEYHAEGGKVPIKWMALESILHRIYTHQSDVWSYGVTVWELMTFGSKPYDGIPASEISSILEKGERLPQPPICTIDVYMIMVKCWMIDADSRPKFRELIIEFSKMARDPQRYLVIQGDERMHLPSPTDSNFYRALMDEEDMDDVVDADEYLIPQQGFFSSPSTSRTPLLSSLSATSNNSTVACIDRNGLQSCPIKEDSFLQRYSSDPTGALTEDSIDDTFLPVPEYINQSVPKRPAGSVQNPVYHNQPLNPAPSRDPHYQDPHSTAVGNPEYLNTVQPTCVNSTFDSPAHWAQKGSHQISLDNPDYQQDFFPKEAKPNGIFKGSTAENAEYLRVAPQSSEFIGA
Chain of Thymidylate synthase (Escherichia coli (strain K12), UniProt P0A884) (P0A884 whole entry, looked up): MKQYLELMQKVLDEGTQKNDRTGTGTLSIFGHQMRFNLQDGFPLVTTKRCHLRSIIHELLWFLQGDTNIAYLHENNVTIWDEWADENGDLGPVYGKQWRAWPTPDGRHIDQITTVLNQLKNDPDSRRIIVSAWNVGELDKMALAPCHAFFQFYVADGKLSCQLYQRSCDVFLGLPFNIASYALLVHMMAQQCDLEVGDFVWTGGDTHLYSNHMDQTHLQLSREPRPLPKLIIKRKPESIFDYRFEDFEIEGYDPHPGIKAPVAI
Chain of VEGFR-2 kinase (P35968 20-1356): as the sequence (P35968 20-1356) above

`CC(C)c1ccc(Nc2nc(N)nc3c2-c2ccccc2C3)cc1` [AAG145-126] gave an IC50 (A431 cytotoxicity assay; Table 3) of 126 µM, an IC50 (PDGFR-β kinase; [5]) of 7.8 µM and an IC50 (EGFR kinase; Table 3, read-out: EGFR kinase) of 42.6 µM. It also gave an IC50 (Flk-1 kinase) of 11 µM.
With `COc1cccc(Nc2nc(N)nc3c2-c2ccccc2C3)c1` [AAG145-159] the IC50 (A431 cytotoxicity assay; Table 3) was 13.9 µM, the IC50 (PDGFR-β kinase; [5]) was 75.5 µM and the IC50 (EGFR kinase; Table 3, read-out: EGFR kinase) was over 200 µM. The IC50 (Flk-1 kinase) was 43 µM.
For `Cc1cc(C)c(/C=C2\C(=O)Nc3ccccc32)[nH]1` [SU5416, reference compound], the IC50 (A431 cytotoxicity assay; Table 3) was […] and the IC50 (CAM angiogenesis) was 0.032 ± 0.005 µM.
`Nc1nc2c(c(Nc3cccc(F)c3)n1)-c1ccccc1C2` [AAG145-161] gave an IC50 (A431 cytotoxicity assay; Table 3) of 9.8 µM, an IC50 (PDGFR-β kinase; [5]) of 7.1 µM and an IC50 (EGFR kinase; Table 3, read-out: EGFR kinase) of over 200 µM. It also gave an IC50 (Flk-1 kinase) of 55.7 µM.
`Nc1nc2[nH]cc(CCc3ccc(C(=O)N[C@@H](CCC(=O)O)C(=O)O)cc3)c2c(=O)[nH]1` [Pemetrexed, reference compound] gave an IC50 (Thymidylate synthase [1]; E. coli TS, read-out: Thymidylate synthase inhibition E. coli) of 15 µM and an IC50 (Thymidylate synthase [2]) of 29 µM.
Compound `Nc1nc2c(c(Nc3ccc(Cl)cc3F)n1)-c1ccccc1C2` [AAG145-135] has an IC50 (A431 cytotoxicity assay; Table 3) of 9.7 µM, an IC50 (EGFR kinase; Table 3, read-out: EGFR kinase) of 11.7 µM and an IC50 (Flk-1 kinase) of 197 µM.
`Nc1nc2c(c(Nc3cccc(Br)c3)n1)-c1ccccc1C2` [AAG145-131] showed an IC50 (A431 cytotoxicity assay; Table 3) of over 5000 µM, an IC50 (PDGFR-β kinase; [5]) of 126 µM and an IC50 (EGFR kinase; Table 3, read-out: EGFR kinase) of 24.1 µM. The IC50 (Flk-1 kinase) was over 200 µM.
With `Nc1nc2c(c(Nc3cccc(Cl)c3)n1)-c1ccccc1C2` [AAG145-157] the IC50 (A431 cytotoxicity assay; Table 3) was 235 µM, the IC50 (PDGFR-β kinase; [5]) was over 500 µM and the IC50 (EGFR kinase; Table 3, read-out: EGFR kinase) was 19.6 µM. For the same compound, the IC50 (Flk-1 kinase) was 134 µM.
Work on `Nc1nc(N)c2c(n1)[nH]c1cccc(Sc3ccccc3)c12` [AAG-148-43, 5-(phenylthio)-9H-pyrimido[4,5-b]indole-2,4-diamine] yielded an IC50 (A431 cytotoxicity assay; Table 1) of 49.2 µM, an IC50 (Thymidylate synthase [1]) of over 27 µM and an IC50 (PDGFR-β kinase; Table 1, read-out: PDGFR-β kinase inhibition) of 2.8 µM. The “metastasis to the liver of COLO-205 cells” value [3, 6] was “significantly reduced metastasis to the liver”, the “vascularity of COLO-205 primary tumors” value [3, 6] was “reduced vascularity much better than DMBI” and the “primary tumor growth of COLO-205” value ([3]; athymic mice, 25 mg/kg three times a week) was “significantly reduced the growth”. The “apparent toxicity (loss in weight of the animals)” value ([3]; mice, 25 mg/kg three times weekly) was “no apparent toxicity”, the IC50 (VEGFR-2 kinase) was 22.6 µM and the IC50 (EGFR kinase; Table 1, read-out: EGFR kinase inhibition) was 15.1 µM. It also gave an IC50 (Thymidylate synthase [2]) of 0.54 µM.
`Nc1nc2c(c(Nc3ccc(F)c(Cl)c3)n1)-c1ccccc1C2` [AAG145-164] showed an IC50 (A431 cytotoxicity assay; Table 3) of 158 µM, an IC50 (PDGFR-β kinase; [5]) of 6.4 µM and an IC50 (EGFR kinase; Table 3, read-out: EGFR kinase) of over 200 µM. It also gave an IC50 (Flk-1 kinase) of 72.9 µM.
Work on `Nc1nc2c(c(Nc3ccccc3)n1)-c1ccccc1C2` [AAG145-158] yielded an IC50 (A431 cytotoxicity assay; Table 3) of 4.9 µM, an IC50 (PDGFR-β kinase; [5]) of 43.1 µM and an IC50 (EGFR kinase; Table 3, read-out: EGFR kinase) of over 200 µM. For the same compound, the IC50 (Flk-1 kinase) was 171 µM.
`Cc1ccc(Sc2cccc3[nH]c4nc(N)nc(N)c4c23)cc1` [AAG-148-311, 5-[(4-methylphenyl)thio]-9H-pyrimido[4,5-b]indole-2,4-diamine] showed an IC50 (Thymidylate synthase [4]) of 0.18 µM and an IC50 (Thymidylate synthase [2]) of 0.39 µM.
Compound `CC(C)c1ccccc1Nc1nc(N)nc2c1-c1ccccc1C2` [AAG145-124] has an IC50 (A431 cytotoxicity assay; Table 3) of 126 µM, an IC50 (PDGFR-β kinase; [5]) of 21.7 µM and an IC50 (EGFR kinase; Table 3, read-out: EGFR kinase) of over 200 µM. For the same compound, the IC50 (Flk-1 kinase) was over 200 µM.
